Key:
[1] = target: T1, CRBN and Helios (IKZF2) (Homo sapiens, UniProt Q96SW2+Q9UKS7); assay: TR-FRET dimerization assay (CRBN-IKZF2 ternary complex formation); format: binding; conditions: n=1
T1 construct: His (N); Strep (N)
Outline: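 BODIPY-labeled DDB1ΔB-CRBN and in vitro biotinylated IKZF2 were treated with increasing compound concentrations plus tracer Terbium-Streptavidin and incubated 15 min at rt. Recruitment was quantified as the 520/490 nm TR-FRET ratio; values are single measurements (n=1), each averaged from at least three technical replicates.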

[2] = tested on: IKZF2; assay: Cellular degradation assay, eGFP-IKZF2Δ fusion with mCherry reporter in Flp-In 293 cells; format: cell-based; conditions: for potency of IKZF2 degradation, in words: Table 3 summary; for IKZF2 GFP/RFP Relative Abundance: 5 h incubation, n=1; for DC50: half degradation at 5 h (DC50,5 h), triplicate, 11 point dose response
Outline: (§1)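 Flp-In 293 cells stably expressing eGFP-tagged degron fusions with P2A-mCherry reporter were treated with compound titrations (0.5% DMSO) for 5 hours. Imaging quantified GFP-positive/mCherry-positive cell fraction per well; DC50 at 5 h from nonlinear variable-slope fit.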

[3] = target: GSPT1 (Homo sapiens, UniProt P15170+Q96SW2); assay: Cellular degradation assay, eGFP-GSPT1 fusion with mCherry reporter in Flp-In 293 cells; format: cell-based; set-up: expressed in transfected cells; host or cells: Flp-In 293; conditions: for DC50: half degradation at 5 h (DC50,5 h), triplicate, 11 point dose response; for GSPT1 GFP/RFP Relative Abundance: 5 h incubation, n=1
Sequence of GSPT1 (P15170 whole entry, the tested form may be a part): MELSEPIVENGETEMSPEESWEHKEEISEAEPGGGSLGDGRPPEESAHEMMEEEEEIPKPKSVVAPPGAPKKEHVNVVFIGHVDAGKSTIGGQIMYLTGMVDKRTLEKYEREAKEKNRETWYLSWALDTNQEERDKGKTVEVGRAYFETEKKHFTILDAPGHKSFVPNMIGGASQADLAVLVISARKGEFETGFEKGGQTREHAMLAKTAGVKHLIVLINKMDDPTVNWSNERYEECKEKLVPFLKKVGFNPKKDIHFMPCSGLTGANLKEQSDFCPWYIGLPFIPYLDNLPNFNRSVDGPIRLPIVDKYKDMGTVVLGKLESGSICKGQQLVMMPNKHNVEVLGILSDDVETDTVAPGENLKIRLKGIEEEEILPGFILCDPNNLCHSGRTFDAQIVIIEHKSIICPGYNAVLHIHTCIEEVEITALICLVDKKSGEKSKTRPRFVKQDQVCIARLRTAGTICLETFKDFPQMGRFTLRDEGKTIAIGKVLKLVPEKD
Sequence of GSPT1 (Q96SW2 whole entry, the tested form may be a part): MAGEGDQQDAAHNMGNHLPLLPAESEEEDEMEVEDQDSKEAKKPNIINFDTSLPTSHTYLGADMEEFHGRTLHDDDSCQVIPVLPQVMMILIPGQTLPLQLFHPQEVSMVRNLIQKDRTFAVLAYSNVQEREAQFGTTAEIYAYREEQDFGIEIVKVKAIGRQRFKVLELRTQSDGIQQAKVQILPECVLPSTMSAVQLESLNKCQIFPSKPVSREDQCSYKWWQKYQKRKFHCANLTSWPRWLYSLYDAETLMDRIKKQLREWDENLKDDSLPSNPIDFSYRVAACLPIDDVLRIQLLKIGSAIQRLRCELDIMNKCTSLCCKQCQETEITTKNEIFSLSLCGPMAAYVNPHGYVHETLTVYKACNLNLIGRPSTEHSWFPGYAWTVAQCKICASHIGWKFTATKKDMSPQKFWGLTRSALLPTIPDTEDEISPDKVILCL
Sequence of GSPT1 (Q16531 whole entry partner, the tested form may be a part): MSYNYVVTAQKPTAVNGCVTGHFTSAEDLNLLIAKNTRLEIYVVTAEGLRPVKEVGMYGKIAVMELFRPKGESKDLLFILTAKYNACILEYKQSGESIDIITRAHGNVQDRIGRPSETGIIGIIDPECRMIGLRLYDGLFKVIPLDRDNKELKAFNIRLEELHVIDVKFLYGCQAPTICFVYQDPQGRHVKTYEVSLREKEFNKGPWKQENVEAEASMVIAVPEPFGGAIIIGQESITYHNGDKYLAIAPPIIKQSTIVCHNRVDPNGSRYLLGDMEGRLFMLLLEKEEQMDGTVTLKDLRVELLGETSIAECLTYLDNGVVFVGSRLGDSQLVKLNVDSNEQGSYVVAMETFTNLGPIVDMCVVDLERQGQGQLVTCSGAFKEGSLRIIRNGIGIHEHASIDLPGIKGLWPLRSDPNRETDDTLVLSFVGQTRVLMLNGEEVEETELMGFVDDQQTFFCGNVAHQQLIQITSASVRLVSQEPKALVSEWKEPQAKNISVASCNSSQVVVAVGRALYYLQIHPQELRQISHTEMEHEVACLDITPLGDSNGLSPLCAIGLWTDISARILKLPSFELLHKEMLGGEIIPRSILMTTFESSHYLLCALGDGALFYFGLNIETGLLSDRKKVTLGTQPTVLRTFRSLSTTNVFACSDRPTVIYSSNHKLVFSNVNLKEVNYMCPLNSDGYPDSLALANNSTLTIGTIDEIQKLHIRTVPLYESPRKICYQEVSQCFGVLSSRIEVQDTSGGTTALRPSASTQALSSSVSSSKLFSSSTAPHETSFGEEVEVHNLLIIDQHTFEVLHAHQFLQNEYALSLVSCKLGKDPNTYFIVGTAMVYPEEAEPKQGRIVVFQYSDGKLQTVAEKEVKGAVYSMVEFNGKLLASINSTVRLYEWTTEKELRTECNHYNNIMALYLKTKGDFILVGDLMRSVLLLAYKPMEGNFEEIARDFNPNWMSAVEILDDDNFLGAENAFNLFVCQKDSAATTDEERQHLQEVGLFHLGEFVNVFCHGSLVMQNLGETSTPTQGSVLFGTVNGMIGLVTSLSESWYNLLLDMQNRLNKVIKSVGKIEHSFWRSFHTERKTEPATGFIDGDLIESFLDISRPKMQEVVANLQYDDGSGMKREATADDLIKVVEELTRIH
Description: IKZF1Δ, IKZF2Δ, GSPT1 and SALL4 ZnF1-2 were subcloned into mammalian pcDNA5/FRT Vector (Ampicillin and Hygromycin B resistant) modified to contain MCS-eGFP-P2A-mCherry. […] Following 2-3 passage cycle, FACS (FACSAria™ II, BD) was used to enrich for cells expressing eGFP and mCherry. Cells stably expressing the IKZF1Δ, IKZF2Δ, GSPT1 or SALL4 Znf1-2 GFP fusions with mCherry reporter were seeded at 30-50% confluency in 384-well plates with 50 μL FluoroBrite™ DMEM media (Thermo Fisher Scientific, A18967) containing 10% FBS per well a day before compound treatment. Compound titrations were dispensed using a D300e Digital Dispenser (HP), normalized to 0.5% DMSO, and incubated with cells for 5 hours.
The resulting images were analyzed using CellProfiler™. A series of image analysis steps (‘image analysis pipeline’) was constructed. First, the red and green channels were aligned and cropped to target the middle of each well (to avoid analysis of heavily clumped cells at the edges), and a background illumination function was calculated for both red and green channels of each well individually and subtracted to correct for illumination variations across the 384-well plate from various sources of error. An additional step was then applied to the green channel to suppress the analysis of large auto fluorescent artifacts and enhance the analysis of cell specific fluorescence by way of selecting for objects under a given size, 30 A.U., and with a given shape, speckles. mCherry-positive cells were then identified in the red channel filtering for objects between 8-60 pixels in diameter and using intensity to distinguish between clumped objects. The green channel was then segmented into GFP positive and negative areas and objects were labeled as GFP positive if at least 40% of it overlapped with a GFP positive area. The fraction of GFP-positive cells/mCherry-positive cells in each well was then calculated, and the green and red images were rescaled for visualization.
The degradation assay was performed as described above. […] Degradation was measured after 5 h of compound treatment and the concentrations that lead to half degradation at 5 h (DC50,5 h) were calculated using the nonlinear fit variable slope model (GraphPad Software).

[4] = target: T2, IKZF1 (Homo sapiens, UniProt Q13422); assay: Cellular degradation assay, eGFP-IKZF1Δ fusion with mCherry reporter in Flp-In 293 cells; format: cell-based; conditions: for IKZF1 GFP/RFP Relative Abundance: 5 h incubation, n=1; for DC50: half degradation at 5 h (DC50,5 h), triplicate, 11 point dose response
T2 construct: expressed in transfected cells; host or cells: Flp-In 293
T2 sequence (Q13422 83-213 isoform Q13422-7 limits assumed): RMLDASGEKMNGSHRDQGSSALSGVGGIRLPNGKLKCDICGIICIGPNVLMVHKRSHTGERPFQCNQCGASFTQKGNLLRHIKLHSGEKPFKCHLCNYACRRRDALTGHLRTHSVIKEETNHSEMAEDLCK
T2 sequence (Q96SW2 whole entry partner, the tested form may be a part): as the sequence (Q96SW2 whole entry, the tested form may be a part) above
T2 sequence (Q16531 2-1140 partner limits assumed): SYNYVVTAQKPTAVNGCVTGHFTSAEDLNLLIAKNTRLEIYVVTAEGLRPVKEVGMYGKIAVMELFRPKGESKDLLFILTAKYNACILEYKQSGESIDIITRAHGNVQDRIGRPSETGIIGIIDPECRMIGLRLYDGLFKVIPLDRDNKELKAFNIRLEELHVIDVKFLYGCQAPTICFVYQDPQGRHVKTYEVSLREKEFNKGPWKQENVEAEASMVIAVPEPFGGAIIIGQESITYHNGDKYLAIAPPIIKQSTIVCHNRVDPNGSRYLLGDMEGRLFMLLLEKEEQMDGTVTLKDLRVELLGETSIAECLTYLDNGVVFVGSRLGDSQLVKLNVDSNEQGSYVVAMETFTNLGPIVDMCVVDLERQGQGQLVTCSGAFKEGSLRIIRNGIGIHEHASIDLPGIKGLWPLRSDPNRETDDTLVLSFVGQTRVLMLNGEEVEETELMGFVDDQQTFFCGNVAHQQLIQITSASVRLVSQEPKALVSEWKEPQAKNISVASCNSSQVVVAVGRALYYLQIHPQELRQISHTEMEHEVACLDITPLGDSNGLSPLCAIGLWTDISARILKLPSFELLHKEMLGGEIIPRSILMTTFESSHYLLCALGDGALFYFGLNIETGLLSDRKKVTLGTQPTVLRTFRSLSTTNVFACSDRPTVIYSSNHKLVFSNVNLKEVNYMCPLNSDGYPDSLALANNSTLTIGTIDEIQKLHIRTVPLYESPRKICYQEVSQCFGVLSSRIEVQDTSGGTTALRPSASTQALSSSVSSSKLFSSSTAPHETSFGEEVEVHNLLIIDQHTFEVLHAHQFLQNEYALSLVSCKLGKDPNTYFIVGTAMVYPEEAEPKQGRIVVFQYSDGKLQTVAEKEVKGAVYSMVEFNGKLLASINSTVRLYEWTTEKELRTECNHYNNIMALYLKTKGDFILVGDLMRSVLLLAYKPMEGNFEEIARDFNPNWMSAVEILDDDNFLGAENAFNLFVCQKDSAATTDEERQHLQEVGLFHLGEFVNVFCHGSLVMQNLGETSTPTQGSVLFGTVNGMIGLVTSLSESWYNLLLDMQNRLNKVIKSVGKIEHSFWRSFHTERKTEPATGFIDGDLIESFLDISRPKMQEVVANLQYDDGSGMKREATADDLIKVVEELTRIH
Outline: as §1

[5] = compound concentration 6.6667E−05
[6] = compound concentration 6.6667E−06
[7] = compound concentration 6.6667E−07 (667 nM)
[8] = compound concentration 2.00E−05
[9] = compound concentration 2.00E−06
[10] = compound concentration 2.00E−07

T1 sequence (Q96SW2 whole entry): as the sequence (Q96SW2 whole entry, the tested form may be a part) above
T1 sequence (Q9UKS7 whole entry): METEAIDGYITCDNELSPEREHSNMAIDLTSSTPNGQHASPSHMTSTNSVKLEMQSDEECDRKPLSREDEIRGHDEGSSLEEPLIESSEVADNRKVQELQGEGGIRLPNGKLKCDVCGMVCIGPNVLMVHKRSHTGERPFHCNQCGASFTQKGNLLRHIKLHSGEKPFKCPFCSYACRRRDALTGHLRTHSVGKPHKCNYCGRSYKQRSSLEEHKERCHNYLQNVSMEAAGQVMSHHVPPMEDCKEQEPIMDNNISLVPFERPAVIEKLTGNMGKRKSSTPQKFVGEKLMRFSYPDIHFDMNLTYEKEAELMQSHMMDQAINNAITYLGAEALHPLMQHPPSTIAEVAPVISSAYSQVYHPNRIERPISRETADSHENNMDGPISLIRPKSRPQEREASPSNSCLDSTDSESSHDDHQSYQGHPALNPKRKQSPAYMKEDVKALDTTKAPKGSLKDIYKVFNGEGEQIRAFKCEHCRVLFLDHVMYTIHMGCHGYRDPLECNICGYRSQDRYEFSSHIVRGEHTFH

| Structure (SMILES) | TR-FRET-IKZF2 (Normalized to CC-885) [1, 5] | TR-FRET-IKZF2 (Normalized to CC-885) [1, 6] | TR-FRET-IKZF2 (Normalized to CC-885) [1, 7] | potency of IKZF2 degradation, in words [2] | IKZF2 GFP/RFP Relative Abundance [2, 8] | IKZF2 GFP/RFP Relative Abundance [2, 9] | IKZF2 GFP/RFP Relative Abundance [2, 10] | DC50 [2] | DC50 [3] | IKZF1 GFP/RFP Relative Abundance [4, 8] | IKZF1 GFP/RFP Relative Abundance [4, 9] | IKZF1 GFP/RFP Relative Abundance [4, 10] | DC50 [4] | GSPT1 GFP/RFP Relative Abundance [3, 8] | GSPT1 GFP/RFP Relative Abundance [3, 9] | GSPT1 GFP/RFP Relative Abundance [3, 10] | degradation selectivity IKZF2/IKZF1 ([2]; from DC50 values of Table 3) |
| --- | --- | --- | --- | --- | --- | --- | --- | --- | --- | --- | --- | --- | --- | --- | --- | --- | --- |
| Cc1ccc(NC(=O)N[C@@H](C)c2cccc(NC3=CC(=O)N(C4CCC(=O)NC4=O)C3=O)c2)cc1Cl (stereo partly drawn) [Compound 71, 1-(3-chloro-4-methylphenyl)-3-((1S)-1-(3-((1-(2,6-dioxopiperidin-3-yl)-2,5-dioxo-2,5-dihydro-1H-pyrrol-3-yl)amino)phenyl)ethyl)urea] | 1.811 | 1.675 | 1.657 | most potent against IKZF2 | 0.016 | 0.018 | 0.019 | 1.9 nM | > 1000 nM | 0.088 | 0.086 | 0.076 | 2.1 nM |  |  |  |  |
| Cc1ccc(NC(=O)Oc2cccc(NC3=CC(=O)N(C4CCC(=O)NC4=O)C3=O)c2)cc1Cl (stereo not drawn) [Compound 51, 3-((1-(2,6-dioxopiperidin-3-yl)-2,5-dioxo-2,5-dihydro-1H-pyrrol-3-yl)amino)phenyl (3-chloro-4-methylphenyl)carbamate] | 0.037 | 0.032 | 0.017 |  | 1.083 | 1.044 | 1.024 |  |  | 0.861 | 1.001 | 1.026 |  | 1.680 | 0.829 | 0.775 |  |
| O=C1CCC(N2C(=O)C=C(Nc3cccc(NC(=O)Nc4ccc(Cl)c(Cl)c4)c3)C2=O)C(=O)N1 (stereo not drawn) [Compound 56, 1-(3,4-dichlorophenyl)-3-(3-((1-(2,6-dioxopiperidin-3-yl)-2,5-dioxo-2,5-dihydro-1H-pyrrol-3-yl)amino)phenyl)urea] | 0.383 | 0.282 | 0.187 |  | 1.092 | 1.025 | 0.983 |  |  | 1.190 | 0.319 | 0.403 |  | 1.572 | 0.074 | 0.112 |  |
| Cc1ccc(NC(=O)NCc2cccc(NC3=CC(=O)N(C4CCC(=O)NC4=O)C3=O)c2)cc1C (stereo not drawn) [Compound 58, 1-(3,4-dimethylphenyl)-3-(3-((1-(2,6-dioxopiperidin-3-yl)-2,5-dioxo-2,5-dihydro-1H-pyrrol-3-yl)amino)benzyl)urea] | 1.184 | 1.061 | 0.927 |  | 0.064 | 0.077 | 0.122 |  |  | 0.075 | 0.070 | 0.074 |  | 0.421 | 0.603 | 0.594 |  |
| CCC(NC(=O)Nc1ccc(C)c(Cl)c1)c1cccc(NC2=CC(=O)N(C3CCC(=O)NC3=O)C2=O)c1 (stereo not drawn) [Compound 74, 1-(3-chloro-4-methylphenyl)-3-(1-(3-((1-(2,6-dioxopiperidin-3-yl)-2,5-dioxo-2,5-dihydro-1H-pyrrol-3-yl)amino)phenyl)propyl)urea] | 2.010 | 1.914 | 1.817 | most potent against IKZF2 | 0.021 | 0.033 | 0.032 | 1.9 nM | > 1000 nM | 0.096 | 0.090 | 0.114 | 7.8 nM |  |  |  | ~4 fold |

Reference: patent publication US12227488B2, “Small molecule degraders of Helios and methods of use” (DANA-FARBER CANCER INSTITUTE, INC., priority 2018, dated 2025)
